These are literature values, as cited in patent US9827197B2, “Diclofenac formulations and methods of use” (APR Applied Pharma Research s.a., priority 2005, dated 2017).

The conditions of data set [1]: commercially available sugar coated tablets.
For data set [2] the following is noted: water at 25 degrees Celsius.

As to `O=C(O)Cc1ccccc1Nc1c(Cl)cccc1Cl` [Diclofenac potassium], the terminal half life entry in data set [1] is “about 1.9 hours”.
As for `OC[C@@H](O)[C@@H](O)[C@H](O)[C@H](O)CO` [mannitol], the solubility in water in data set [2] was 22 g/100 ml.
